This note sets out measurements from US11549075B2, “Benzyl hemiformal-containing biodiesel mixtures” (LANXESS Deutschland GmbH, priority 2019, dated 2023).

SMILES strings stand for the structures.

Data set [1] can be described thus: Solubility of benzyl hemiformal in petrodiesel without biodiesel content. Format: physicochemical. The note with it: for Solubility of benzyl hemiformal in petrodiesel 100%: undiluted BHF stirred into petrodiesel. The protocol: 1) Benzyl Hemiformal—Solubility in Petrodiesel without Biodiesel Content
While stirring, BHF was mixed with petrodiesel in 0.01% steps. The following solubilities of BHF in petrodiesel were determined: […]

Data set [2] in a line: Solubility of benzyl hemiformal in B7 diesel fuel (petrodiesel with 7% by volume of biodiesel). It counts as physicochemical. The note with it: for Solubility of benzyl hemiformal in B7 diesel fuel: undiluted BHF. An excerpt:
2) Benzyl Hemiformal—Solubility in B7 Diesel Fuel (Petrodiesel with 7% by Volume of Biodiesel)

In the case of `OCOCc1ccccc1` [benzyl hemiformal], the “Solubility of benzyl hemiformal in petrodiesel 100%” value in data set [1] (0.01 % BHF) is “dissolved to give clear solution”; in data set [1] (0.02 % BHF), “dissolved to give clear solution”; in data set [1] (0.03 % BHF), “undissolved fractions”; in data set [1] (0.04 % BHF), “undissolved fractions”. In addition, the “Solubility of BHF in petrodiesel (in words)” value in data set [1] (room temperature) is recorded as “only poorly soluble”. In data set [1] (undiluted BHF, petrodiesel without biodiesel), the “Amount of undiluted BHF that can be incorporated into petrodiesel to give a clear solution” value was “approx. 200 ppm”. Moreover, the “Solubility of benzyl hemiformal in B7 diesel fuel” value in data set [2] (0.01 % BHF) is “dissolved to give clear solution”; in data set [2] (0.02 % BHF) it was “dissolved to give clear solution”; in data set [2] (0.03 % BHF) it was “undissolved fractions”; in data set [2] (0.04 % BHF), “undissolved fractions”. The “Amount of undiluted BHF that can be incorporated into B7 diesel fuel to give a clear solution” value in data set [2] (B7 diesel fuel) was “approx. 200 ppm”.
